Among the test systems are SK-MEL-5; T47D; UACC-62; KM12; SNB-19; HT-29; EKVX; OVCAR-8; COLO 205; A549; SN12C; HCC 2998; NCI-H23; PC-3; SW-620; 786-0; CAKI-1; ACHN; A498; Malme-3M.
What all share (assay): DTP human tumour cell line panel, 48 h

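48-hour exposure; five concentrations; linearly interpolated endpoints. At the GI50, growth is halved.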 The source made the active and inactive calls. Rule as the data show it: active = GI50 up to about 1.1 µM and inactive = higher.

As usually defined, the GI50 is the concentration that inhibits growth by half. As to `CCSCCCSCCSCC`, the GI50 with SK-MEL-5, with T47D, in the assay on UACC-62, in the assay on KM12, with SNB-19 and with HT-29 was > 100 µM (inactive) in each case. For the same compound, the GI50 with EKVX, with OVCAR-8, in the assay with COLO 205, in the assay on A549, in the assay with SN12C and in the assay with HCC 2998 was > 100 µM (inactive) throughout. The GI50 in the assay with NCI-H23, in the assay on PC-3, with SW-620 and in the assay on 786-0 was > 100 µM (inactive) in each case.
In the case of `COC(=O)Nc1cc(OCCCOC(C)=O)c2[nH]c(C(=O)OC)cc2c1C[C@H](O)CO`, the GI50 with SK-MEL-5, with T47D, with UACC-62, with CAKI-1, with KM12 and with SNB-19 was > 100 µM (inactive) each time. Moreover, the GI50 with HT-29 was > 100 µM (inactive); in the assay on EKVX it was 72.1 µM (inactive); in the assay on OVCAR-8, > 100 µM (inactive); in the assay with COLO 205 it was > 100 µM (inactive); in the assay on ACHN, > 100 µM (inactive); with A549, > 100 µM (inactive). The GI50 with SN12C, in the assay with HCC 2998, in the assay on A498, in the assay with NCI-H23, in the assay on PC-3 and in the assay with SW-620 was > 100 µM (inactive) each time. In addition, the GI50 in the assay with 786-0 is > 100 µM (inactive).
Turning to `N[C@H](CCC(=O)NCP(=O)(O)O)C(=O)O`, the GI50 with SK-MEL-5, in the assay with T47D, in the assay with UACC-62, with KM12, in the assay on SNB-19 and in the assay on HT-29 was > 100 µM (inactive) throughout. In addition, the GI50 with EKVX, in the assay on OVCAR-8, in the assay on COLO 205, in the assay with ACHN, in the assay on Malme-3M and in the assay on A549 was > 100 µM (inactive) each time. Further, the GI50 with SN12C, in the assay with HCC 2998, in the assay with A498, in the assay with NCI-H23, with PC-3 and with SW-620 was > 100 µM (inactive) throughout. The GI50 with 786-0 is > 100 µM (inactive).
Consider `CN(C)CCNC(=O)c1cccc(C(=O)Nc2ccccc2)c1[N+](=O)[O-]`, for which the GI50 in the assay on SK-MEL-5, in the assay on T47D, in the assay on UACC-62, in the assay with CAKI-1, in the assay on KM12 and with SNB-19 was > 100 µM (inactive) in each case. The GI50 is 71.8 µM (inactive) in the assay on HT-29; > 100 µM (inactive) in the assay on OVCAR-8; 54.2 µM (inactive) with COLO 205; > 100 µM (inactive) with ACHN; 48.5 µM (inactive) in the assay with Malme-3M; > 100 µM (inactive) with A549. Also, the GI50 in the assay with SN12C, with HCC 2998, in the assay with A498, with NCI-H23, with PC-3 and with SW-620 was > 100 µM (inactive) in each case. For the same compound, the GI50 with 786-0 was > 100 µM (inactive).
Take `CC(=O)Oc1ccc2cc(Oc3cc(Cl)c(Cl)cc3Cl)c(=O)oc2c1`: the GI50 was 11.9 µM (inactive) in the assay with SK-MEL-5; 27.2 µM (inactive) in the assay on T47D; 18 µM (inactive) with CAKI-1; 13 µM (inactive) in the assay with KM12; 29.6 µM (inactive) in the assay on SNB-19; 16.8 µM (inactive) in the assay on HT-29. Moreover, the GI50 is 24.4 µM (inactive) in the assay with EKVX; 17.1 µM (inactive) in the assay on OVCAR-8; 22.9 µM (inactive) in the assay on ACHN; 15.3 µM (inactive) with Malme-3M; 16.4 µM (inactive) in the assay on A549; 14.6 µM (inactive) with SN12C. The GI50 in the assay with HCC 2998 was 17.1 µM (inactive); with A498, 17.7 µM (inactive); in the assay on NCI-H23, 22.2 µM (inactive); in the assay with PC-3 it was 16.1 µM (inactive); in the assay on SW-620, 14.8 µM (inactive); with 786-0, 15.6 µM (inactive).
`COC(=O)CCCc1ccc2c(c1)CCC2`: the GI50 in the assay on SK-MEL-5, with T47D, with UACC-62, in the assay with CAKI-1, with KM12 and with SNB-19 was > 100 µM (inactive) in each case. Moreover, the GI50 with OVCAR-8, in the assay with COLO 205, with ACHN, in the assay on Malme-3M, with A549 and with SN12C was > 100 µM (inactive) in each case. Besides, the GI50 in the assay with HCC 2998, with NCI-H23, in the assay on PC-3, in the assay on SW-620 and in the assay on 786-0 was > 100 µM (inactive) each time.
With `C[C@@H](CC(=O)O)OC1OC(COC(=O)C(C)(C)C)C(OC(=O)C(C)(C)C)C(OC(=O)C(C)(C)C)C1OC(=O)C(C)(C)C` (some centres not stated), the GI50 with SK-MEL-5 was 29.6 µM (inactive); with T47D it was 45.9 µM (inactive); in the assay on UACC-62, 71.9 µM (inactive); with CAKI-1, 62.2 µM (inactive); with KM12, 45.7 µM (inactive); with SNB-19, 28.2 µM (inactive). Moreover, the GI50 in the assay on HT-29 is 39 µM (inactive); in the assay with EKVX, 93.5 µM (inactive); with OVCAR-8, 81.7 µM (inactive); in the assay with COLO 205 it was 32.8 µM (inactive); in the assay on ACHN, 22.6 µM (inactive); with A549 it was 45 µM (inactive). In addition, the GI50 in the assay on SN12C was 48.2 µM (inactive); in the assay on HCC 2998, 35 µM (inactive); in the assay with A498, > 100 µM (inactive); in the assay on NCI-H23, 27.2 µM (inactive); with PC-3, 46.9 µM (inactive); in the assay on SW-620, 45.4 µM (inactive). In addition, in the assay with 786-0, the GI50 was 66.2 µM (inactive).
Take `C/C(=N\NC(=S)N1CCCCCCCCCCCC1)c1ccccn1`: the GI50 was 0.2 µM (active) with SK-MEL-5; 0.233 µM (active) in the assay on T47D; 0.246 µM (active) in the assay on CAKI-1; 0.102 µM (active) with KM12; 0.659 µM (active) with SNB-19; 0.0356 µM (active) with HT-29. In addition, the GI50 with EKVX is 0.0514 µM (active); in the assay on OVCAR-8, 0.147 µM (active); with COLO 205, 0.0522 µM (active); in the assay with ACHN, 0.215 µM (active); in the assay on Malme-3M, 0.281 µM (active); in the assay with A549, 0.356 µM (active). Also, the GI50 in the assay with SN12C is 0.238 µM (active); in the assay on HCC 2998, 0.385 µM (active); in the assay on A498, 0.372 µM (active); with NCI-H23, 0.379 µM (active); in the assay with PC-3, 0.107 µM (active); with SW-620, 0.0652 µM (active). Moreover, the concentration for 50% growth inhibition (GI50) in the assay with 786-0 is 0.173 µM (active).
Take `Nc1ncc(Cc2nn3c(COc4ccc(Cl)cc4)nnc3s2)s1`: the GI50 in the assay with SK-MEL-5 is > 100 µM (inactive); in the assay on T47D, > 100 µM (inactive); with UACC-62 it was > 100 µM (inactive); in the assay with CAKI-1, > 100 µM (inactive); in the assay with KM12 it was 7.45 µM (inactive); in the assay with SNB-19 it was > 100 µM (inactive). The GI50 was > 100 µM (inactive) in the assay on HT-29; > 100 µM (inactive) in the assay with EKVX; > 100 µM (inactive) in the assay on OVCAR-8; > 100 µM (inactive) in the assay with COLO 205; 0.0543 µM (active) with ACHN; 3.61 µM (inactive) in the assay with Malme-3M. The GI50 in the assay with A549, in the assay with SN12C, in the assay on HCC 2998, in the assay on NCI-H23, in the assay on PC-3 and in the assay with SW-620 was > 100 µM (inactive) throughout. The GI50 in the assay with 786-0 was > 100 µM (inactive).
Turning to `Cc1ccc(/N=N/C(=N/c2ccccc2)c2ccc(N(CCC#N)CCC#N)cc2)cc1`, the GI50 with SK-MEL-5 was 22.9 µM (inactive); in the assay on T47D, 23.7 µM (inactive); in the assay on UACC-62 it was 21.8 µM (inactive); in the assay with CAKI-1, 55.5 µM (inactive); with KM12, 24.3 µM (inactive); in the assay on SNB-19 it was 37.5 µM (inactive). The GI50 was 30.9 µM (inactive) in the assay with HT-29; 30.6 µM (inactive) in the assay with EKVX; 26.1 µM (inactive) in the assay with OVCAR-8; 21.7 µM (inactive) with COLO 205; 46 µM (inactive) in the assay with ACHN; 26.7 µM (inactive) in the assay with A549. For the same compound, the GI50 was 31.9 µM (inactive) in the assay with SN12C; 19.4 µM (inactive) in the assay with HCC 2998; 45.4 µM (inactive) in the assay on A498; 18.3 µM (inactive) in the assay with NCI-H23; 17.9 µM (inactive) with PC-3; 45.6 µM (inactive) with SW-620. Also, in the assay on 786-0, the GI50 was 37.8 µM (inactive).
`CC(C)(C)c1cc([N+](=O)[O-])cc([N+](=O)[O-])c1O` [DINOTERB]: the GI50 is 6.47 µM (inactive) in the assay with SK-MEL-5; > 10 µM (inactive) in the assay with T47D; > 10 µM (inactive) in the assay with UACC-62; 5.6 µM (inactive) in the assay with CAKI-1; > 10 µM (inactive) in the assay with KM12; > 10 µM (inactive) with SNB-19. The GI50 in the assay on HT-29 is > 10 µM (inactive); in the assay with EKVX it was 9.86 µM (inactive); with OVCAR-8, > 10 µM (inactive); with COLO 205 it was > 10 µM (inactive); with ACHN, > 10 µM (inactive); with A549 it was 7.64 µM (inactive). Besides, the GI50 in the assay with SN12C was > 10 µM (inactive); with HCC 2998, > 10 µM (inactive); with NCI-H23, > 10 µM (inactive); in the assay with PC-3 it was 5.52 µM (inactive); in the assay with SW-620, > 10 µM (inactive); in the assay with 786-0, > 10 µM (inactive).

The values are drawn from ChEMBL document CHEMBL1201862, “PubChem BioAssay data set” (2004).
